Experimental data from publication PMC6149822, “A New Series of Pyrrole-Based Chalcones: Synthesis and Evaluation of Antimicrobial Activity, Cytotoxicity, and Genotoxicity” (Molecules : A Journal of Synthetic Chemistry and Natural …, 2017).
In brackets after ≈: the same amount, converted by molar mass. Marks after values point to notes of the source that are not given here.

Columns and labels:
[1] = test system: C. krusei; assay: ATP luminescence microbial cell viability assay; type: cell-based, Candida krusei; conditions: 24 h treatment, result in words
Experimental: A model from BioTek Instruments Inc. combined with a BacTiter-Glo^TM Microbial Cell Viability assay (Promega Corp., Madison, WI, USA) was used to provide a sensitive and rapid method for determining the number of viable microbial cells in culture based on quantitation of the ATP present. […] After incubation, cultures were added into the wells (final concentration of bacteria was 5 × 10^5 CFU/mL and 2.5 × 10^6 CFU/mL for yeasts). After adding the BacTiter reagent, incubation time for bacteria and yeasts was 5 min and 15 min, respectively.
The assay generates a “glow-type” luminescent signal, produced by the luciferase reaction. Briefly, after chemicals and strains were incubated for 24 h, 100 µL of the culture was taken from each well and mixed with the same volume of the BacTiter-Glo™ reagent in a white, opaque-walled microtiter plate. Control wells containing medium without cells were prepared to obtain a value for background luminescence. Cells without compound were used as an ATP-positive control. The microplates were further incubated under agitation for 7 min. Bioluminescence was recorded in a multi-detection microplate reader (BioTek Synergy 2 Multi-Mode Microplate Reader, BioTek Instruments, Winooski, VT, USA). […] Experiments were performed in triplicate and each sample was measured in four replicates.

[2] = test system: Salmonella typhimurium TA100; assay: Ames MPF mutagenicity assay; type: cell-based; conditions: for Revertants fold increase (over baseline) TA 100 S9+: with S9; for Revertants fold increase (over baseline) TA 100 S9−: without S9; for Genotoxicity classification (Ames MPF): TA100, with/without metabolic activation, 0.16-5 mg/mL
Experimental: (§1) An Ames MPF 98/100 mutagenicity assay sample kit (Xenometrix AG, Allschwil, Switzerland) was used to evaluate the genotoxicity of compounds 7 and 9 as described previously. Salmonella typhimurium TA98 (frameshift mutations) and TA100 (base-pair substitutions) strains were used and the compounds were tested in concentrations between […] and 5000 μg/mL (5.0, 2.5, 1.25, 0.625, 0.3125, 0.156 mg/mL in DMSO) in accordance with the guidelines. Mutagenity was tested with/without metabolic activation with an Aroclor™-1254 induced male Sprague–Dawley rat liver microsomal enzyme (S9) mix (Xenometrix AG, Allschwil, Switzerland). 2-Nitrofluorene (2.0 μg/mL) and 4-nitroquinoline N-oxide (0.1 μg/mL) were used without S9, and 1.0 μg/mL and 2.5 μg/mL of 2-aminoanthracene solutions were used with S9 against TA98 and TA100 as positive controls, respectively. At the end of each experiment, yellow wells were counted as positive and compared with the negative control. Fold induction over the negative control and fold induction over the baseline were calculated as described: Fold induction over the negative control is the ratio of the mean number of positive wells for the dose concentration divided by the mean number of positive wells for the zero-dose (negative) control. Fold induction over the baseline is the ratio of the mean number of positive wells for the dose concentration divided by the zero-dose baseline. The zero-dose baseline is obtained by adding one standard deviation to the mean number of positive wells of the zero-dose control. If the baseline is less than one, the value is set to one for calculation.
(§2) Genotoxicity was determined according to the previous criteria. For a baseline value of ≤3, significant increases between 2- and 3-fold of the baseline were classified as weak mutagens, and increases ≥3-fold of the baseline were classified as mutagens. For a baseline value of >3, significant increases between 1.5- and 2.5-fold of the baseline were classified as weak mutagens, and increases ≥2.5-fold of the baseline were classified as mutagens. At least two adjacent doses with significant increases, or a significant increase at the highest dose level, should be observed for a mutagenic compound. All of the doses were compared according to Student’s t-test at p < 0.05 for statistical significance.

[3] = test system: Salmonella typhimurium TA98; assay: Ames MPF mutagenicity assay; type: cell-based; conditions: for Revertants fold increase (over baseline) TA 98 S9+: with S9; for Revertants fold increase (over baseline) TA 98 S9−: without S9; for Genotoxicity classification (Ames MPF): TA98, with/without metabolic activation, 0.16-5 mg/mL
Experimental: as §1, §2

[4] = test system: E. faecalis (ATCC 51299); assay: Microdilution susceptibility assay (MIC); type: cell-based; conditions: Enterococcus faecalis, ATCC51299
Experimental: (§3) Compounds 1–10 were screened for their antimicrobial activity against gram-negative bacteria, gram-positive bacteria, and yeasts, listed in Table 1. Bacteria were grown in Mueller-Hinton Broth and yeasts were grown in Sabouraud Dextrose Broth (SDB) during experiments. Overnight cultures were prepared routinely by subculturing of stock culture onto Mueller-Hinton Agar for bacteria and Sabouraud Dextrose Agar for yeasts.
(§4) Microdilution susceptibility assay was used for the determination of antibacterial and anticandidal efficacy of compounds 1–10. Chloramphenicol and ketoconazole were used as positive controls for bacteria and yeasts, respectively. All experiments were designed according to the Clinical Laboratory Standards Institute (CLSI). All chemicals were dissolved in dimethyl sulfoxide (DMSO) to obtain stock solution (10 mg/mL). Two-fold serial dilutions (800, 400, 200...0.78 µg/mL) of the compounds were prepared from stock solutions with dH2O. 100 µL of each solution was transferred to 96-well microtiter plates and 100 µL of 10^6 CFU/mL of bacteria and 2 × 10^3 of CFU/mL yeast were added to related wells. As negative controls, wells including microorganisms without agents and wells including agents without microorganisms were used. The plates were kept at 35 °C for 18–20 h and the growth was determined with resazurin (20 mg/mL). Assays were carried out in triplicate.

[5] = test system: K. pneumoniae (ATCC 700603); assay: Microdilution susceptibility assay (MIC); type: cell-based; conditions: Klebsiella pneumoniae, ATCC700603
Experimental: as §3, §4

[6] = test system: C. albicans (ATCC 90028); assay: Microdilution susceptibility assay (MIC); type: cell-based; conditions: Candida albicans, ATCC90028
Experimental: as §3, §4

[7] = test system: E. coli (ATCC 25922); assay: Microdilution susceptibility assay (MIC); type: cell-based; conditions: Escherichia coli, ATCC25922
Experimental: as §3, §4

[8] = test system: E. faecalis (ATCC 29212); assay: Microdilution susceptibility assay (MIC); type: cell-based; conditions: Enterococcus faecalis, ATCC29212
Experimental: as §3, §4

[9] = test system: S. aureus (ATCC 25923); assay: Microdilution susceptibility assay (MIC); type: cell-based; conditions: Staphylococcus aureus, ATCC25923
Experimental: as §3, §4

[10] = test system: C. krusei (ATCC 6258); assay: Microdilution susceptibility assay (MIC); type: cell-based, Candida krusei; conditions: Pichia kudriavzevii, ATCC6258
Experimental: as §3, §4

Compound | antifungal activity in ATP bioluminescence assay [1] | Revertants fold increase (over baseline) TA 100 S9+ ([2]; 0.16 mg/mL) | Revertants fold increase (over baseline) TA 100 S9− ([2]; 0.16 mg/mL) | Revertants fold increase (over baseline) TA 100 S9+ ([2]; 0.31 mg/mL) | Revertants fold increase (over baseline) TA 100 S9− ([2]; 0.31 mg/mL) | Revertants fold increase (over baseline) TA 100 S9+ ([2]; 0.63 mg/mL) | Revertants fold increase (over baseline) TA 100 S9− ([2]; 0.63 mg/mL) | Revertants fold increase (over baseline) TA 100 S9+ ([2]; 1.25 mg/mL) | Revertants fold increase (over baseline) TA 100 S9− ([2]; 1.25 mg/mL) | Revertants fold increase (over baseline) TA 100 S9+ ([2]; 2.5 mg/mL) | Revertants fold increase (over baseline) TA 100 S9− ([2]; 2.5 mg/mL) | Revertants fold increase (over baseline) TA 100 S9+ ([2]; 5 mg/mL) | Revertants fold increase (over baseline) TA 100 S9− ([2]; 5 mg/mL) | Genotoxicity classification (Ames MPF) [2] | Revertants fold increase (over baseline) TA 98 S9+ ([3]; 0.16 mg/mL) | Revertants fold increase (over baseline) TA 98 S9− ([3]; 0.16 mg/mL) | Revertants fold increase (over baseline) TA 98 S9+ ([3]; 0.31 mg/mL) | Revertants fold increase (over baseline) TA 98 S9− ([3]; 0.31 mg/mL) | Revertants fold increase (over baseline) TA 98 S9+ ([3]; 0.63 mg/mL) | Revertants fold increase (over baseline) TA 98 S9− ([3]; 0.63 mg/mL) | further results
Cn1cccc1C(=O)C=Cc1ccc(-c2ccc(Cl)cc2)o1 [Compound 7, 1-(1-Methyl-1H-pyrrol-2-yl)-3-(5-(4-chlorophenyl)furan-2-yl)prop-2-en-1-one] | more statistically significant antifungal activity against C. krusei than ketoconazole | 0.56 | 0.44 | 0.68 | 0.56 | 0.79 | 0.67 | 0.62 | 0.33 | 0.90 | 0.33 | 0.79 | 0.44 | non-genotoxic | 0.68 | 0.66 | 0.76 | 0.33 | 1.01 | 0.44 | Revertants fold increase (over baseline) TA 98 S9+ ([3]; 1.25 mg/mL): 0.68; Revertants fold increase (over baseline) TA 98 S9− ([3]; 1.25 mg/mL): 0.66; Revertants fold increase (over baseline) TA 98 S9+ ([3]; 2.5 mg/mL): 0.51; Revertants fold increase (over baseline) TA 98 S9− ([3]; 2.5 mg/mL): 0.33; Revertants fold increase (over baseline) TA 98 S9+ ([3]; 5 mg/mL): 0.25; Genotoxicity classification (Ames MPF) [3]: non-genotoxic; MIC [4]: 200 µg/mL (≈ 642 µM); MIC [5]: 100 µg/mL (≈ 321 µM); MIC [6]: 50 µg/mL (≈ 160 µM); MIC [7]: 400 µg/mL (≈ 1280 µM); MIC [8]: 100 µg/mL (≈ 321 µM); MIC [9]: 400 µg/mL (≈ 1280 µM); MIC [10]: 25 µg/mL (≈ 80.2 µM)
Cn1cccc1C(=O)C=Cc1ccc(-c2cc(Cl)ccc2Cl)o1 [Compound 9, 1-(1-Methyl-1H-pyrrol-2-yl)-3-(5-(2,5-dichlorophenyl)furan-2-yl)prop-2-en-1-one] | more statistically significant antifungal activity against C. krusei than ketoconazole | 0.51 | 0.48 | 0.73 | 0.54 | 0.68 | 0.54 | 0.68 | 0.54 | 0.79 | 0.30 * | 0.90 | 0.12 * | non-genotoxic | 0.51 | 0.89 | 0.79 | 0.83 | 0.34 * | 0.89 | Revertants fold increase (over baseline) TA 98 S9+ ([3]; 1.25 mg/mL): 0.39; Revertants fold increase (over baseline) TA 98 S9− ([3]; 1.25 mg/mL): 1.07; Revertants fold increase (over baseline) TA 98 S9+ ([3]; 2.5 mg/mL): 0.79; Revertants fold increase (over baseline) TA 98 S9− ([3]; 2.5 mg/mL): 0.24 *; Revertants fold increase (over baseline) TA 98 S9+ ([3]; 5 mg/mL): 0.51; Revertants fold increase (over baseline) TA 98 S9− ([3]; 5 mg/mL): 0.54; Genotoxicity classification (Ames MPF) [3]: non-genotoxic; MIC [4]: 400 µg/mL (≈ 1160 µM); MIC [5]: 200 µg/mL (≈ 578 µM); MIC [6]: 200 µg/mL (≈ 578 µM); MIC [7]: 100 µg/mL (≈ 289 µM); MIC [8]: 200 µg/mL (≈ 578 µM); MIC [9]: 200 µg/mL (≈ 578 µM); MIC [10]: 25 µg/mL (≈ 72.2 µM)
